# Test results reported in patent publication US9192552B2, “Personal care compositions with improved solubility of a solid UV active” (priority 2011, dated 2015).
# Read-outs that look alike come from different tables or passages of the source.
# What was measured:
# [1] = Solvency test: solubility of bis-ethylhexyloxyphenol methoxyphenyl triazine (bemotrizinol) in solvent, visible crystals after storage
# Description: (§1) In the testing provided below, “soluble” (or “solubilize”), in relation to the solubility of a solid solute being tested, means that no visible crystals may be seen after a prescribed storage period at a storage condition. The storage period can vary. Suitable storage periods include about 24 hours, about 1 week, and about 30 days. Suitable storage conditions include ambient conditions or cold storage at 5° C. (approximately 1 atm). In certain embodiments, solubility may be determined after a 24 hour storage period at ambient conditions. In other embodiments, solubility may be determined after 20 days in cold storage. Other testing parameters may include storage for prolonged time periods (e.g., 30 day, 50 days, 60 days, 90 days) and at variable temperatures (e.g., 5° C., 50° C.).
# The solvency of an isosorbide diester within the scope of the present invention was tested against two conventional, industry standard solvents. […] Solubility was also evaluated for samples stored for 7 day at 5° C. followed by equilibration to ambient conditions.
# [2] = Solvency test: solubility of butyl methoxydibenzoylmethane (avobenzone) in solvent, visible crystals after storage
# Description: as §1
# The solvency of an isosorbide diester within the scope of the present invention was tested against two conventional, industry standard solvents. […] Various ratios of the solute:solvent were prepared by mixing solvents and the solid sunscreen (solute) and heating to 70° C. Upon reaching 70° C., the examples may be mixed for about 10 minutes. The mixtures are placed in a covered vial and cooled to the storage temperature. Solubility was evaluated for samples stored 24 hours after mixing at room temperature. […]
# [3] = solute bemotrizinol (Tinosorb S), 24 hour rest at Ambient Conditions
# [4] = solute bemotrizinol (Tinosorb S), 30 day storage at 5° C.
# [5] = solute avobenzone (PARSOL 1789), 24 hour rest at Ambient Conditions
SMILES,"Solubility at Solute:Solvent Ratio 1:3 [1, 3]","Solubility at Solute:Solvent Ratio 1:4 [1, 3]","Solubility at Solute:Solvent Ratio 1:6 [1, 3]","Solubility at Solute:Solvent Ratio 1:8 [1, 3]","Solubility at Solute:Solvent Ratio 1:3 [1, 4]","Solubility at Solute:Solvent Ratio 1:6 [1, 4]","Solubility at Solute:Solvent Ratio 1:8 [1, 4]","Solubility at Solute:Solvent Ratio 14 [1, 4]","Solvency compared with the industry leading solvents ([1]; solute bemotrizinol, versus isopropyl lauroyl sarcosinate and C12-15 alkyl benzoate)","Solubility at Solute:Solvent Ratio 1:3 [2, 5]","Solubility at Solute:Solvent Ratio 1:4 [2, 5]","Solubility at Solute:Solvent Ratio 1:4 ([2]; solute avobenzone (PARSOL 1789), 30 day storage at 5° C.)","Solvency compared with the industry leading solvents ([2]; solute avobenzone, versus isopropyl lauroyl sarcosinate and C12-15 alkyl benzoate)",Solubility at Solute:Solvent Ratio 1:4 [1],Solubility at Solute:Solvent Ratio 1:6 [1],Solubility at Solute:Solvent Ratio 1:8 [1],Solubility at Solute:Solvent Ratio 1:2 [2],Solubility at Solute:Solvent Ratio 1:3 [2],Solubility at Solute:Solvent Ratio 1:4 [2]
"CCCCCCCC(=O)OC1COC2C(OC(=O)CCCCCCC)COC12 (stereo not shown) [Isosorbide dicaprylate, isosorbide dicaprylate]",S,S,S,S,S,S,S,S,superior to the industry leading solvents,S,S,S,equivalent to the industry leading solvents,,,,,,
"CCCCCCCCCCCC(=O)N(C)CC(=O)OC(C)C [Isopropyl lauroyl sarcosinate, isopropyl lauroyl sarcosinate, reference compound]",,,,,,,,,,,,,,S,S,S,S,S,S
